Tests used:
Assay type in all cases: cell-based, rat
[1] = test system: adipose-derived stem cells (ADSC); experiment: stem cell proliferation (colony) experiment in high glucose medium; settings: high glucose destroyed stem cells (33 mM glucose)
Experimental: The adipose-derived stem cells were taken out from the abdominal adipose tissue of 8-month-old Wistar male rats via surgery. After cutting the adipose tissues into suitable sizes, the adipose tissues were washed by antibiotic containing saline. The washed adipose tissues were placed into a Type II collagenase (0.01%) containing saline, and were stirred and heated under 37° C. water bath for 1 hour. Then the adipose tissues were centrifuged by 3000 rpm under room temperature for 10 minute, the precipitants were extracted for cell culture in the culture dish.
In the aspect of stem cell proliferation experiment, the more the number of stem cell colonies in different experimental conditions represents for the better growth experiment condition for stem cells. The stem cells were divided into 5 different groups, which were: Group 1: stem cell group, Group 2: high glucose destroyed stem cell group, Group 3: EGCG (2.5 μM in concentration) precondition high glucose destroyed stem cell group, Group 4: EGCG (5 μM in concentration) precondition high glucose destroyed stem cell group, Group 5: EGCG (10 μM in concentration) precondition high glucose destroyed stem cell group. […] In comparison with the normal stem cell group (Group 1), the distribution of the stem cells colonies cultured in high glucose medium was inhibited (Group 1>Group 2, p<0.001). In contrast, in comparison to the high glucose destroyed stem cells, the stem cell colonies were recovered under different EGCG concentration precondition (Group 2<Group 3, p<0.05; Group 2<Group 4, p<0.05; Group 2<Group 5, p<0.01). Then the migration ability of stem cells under different experiment conditions was tested. The more numbers of stem cells represent the stem cells have stronger migration ability under this experiment condition.

[2] = test system: adipose-derived stem cells (ADSC); experiment: Western blot of protein expression in ADSC preconditioned with EGCG
Experimental: After the drug treatment, the culture medium was removed from the cells and rinsed with PBS buffer for three times; then 1 mL PBS was used to scrape the cells from the dish and the cells containing solution was placed in a centrifuge tube, and the solution was centrifuged by 12,000 rpm for 10 minutes, then the supernatant was removed, and the lysis buffer (50 mM Tris pH 7.5,0.5 M NaCl, 1.0 mM EDTA pH 7.5,1 mM BME, 1% NP40,10% glycerol, protease inhibitor cocktail table) was added and mixed. The mixture was placed on ice and shock once every 5 minutes for 30 minutes, and then the mixture was centrifuged at 12,000 g in 4° C. for 10 minutes, the upper layer was placed in a new tube to measure the protein concentration.
After the drug treatment, the culture medium was removed from the cells and rinsed with PBS buffer for three times; then 1 mL PBS was used to scrape the cells from the dish and the cells containing solution was placed in a centrifuge tube, and the solution was centrifuged by 12,000 rpm for 10 minutes then the supernatant was removed and extraction buffer (50 mM Tris pH 7.5-0.5 M NaCl-1.0 mM EDTA pH 7.5-10% glycerol-protease inhibitor cocktail table) was added into the mill tube, then grinded on ice. And the homogenate was then placed in a new centrifuge tube to centrifuge at 4° C. by 12,000 rpm for 10 minutes, the upper layer was placed in a new centrifuge tube for measuring the protein concentration.
[…] protein samples were added into a PBS solution, and 5× loading dye was added then mixed evenly and boiled for 10 minutes, then analyze by SDS-polyacrylamide slab gel electrophoresis. The upper layer of the SDS-polyacrylamide gel electrophoresis was 3.75% Stacking gel, and the lower layer was 5% and 12% Separating gel. The plastic plates was fixed to the electrophoresis apparatus and the electrophoresis buffer was filled into the electrophoresis tank, and then the treated protein sample was added into the U-shaped groove formed on a plastic plate, and undergo electrophoresis with 75 volts. […]

[3] = test system: adipose-derived stem cells (ADSC); experiment: transwell migration assay of ADSC in high glucose medium
Experimental: The stem cells were divided into five different groups, which were: Group 1: stem cell group, Group 2: high glucose destroyed stem cell group, Group 3: EGCG (2.5 μM in concentration) precondition high glucose destroyed stem cell group, Group 4: EGCG (5 μM in concentration) precondition high glucose destroyed stem cell group, Group 5: EGCG (10 μM in concentration) precondition high glucose destroyed stem cell group. […] The migration ability of the five groups was: 63±10, 36±7, 55±5, 84±6 and 144±4, respectively. In comparison with the normal stem cell group (Group 1), the migration ability of the stem cells cultured in high glucose medium was decreased (Group 1>Group 2, p<0.05). In contrast, in comparison to the high glucose destroyed stem cells, the migration ability of stem cells was recovered under different EGCG concentration precondition (Group 2<Group 3, p<0.05; Group 2<Group 4, p<0.001; Group 2<Group 5, p<0.001). Then the migration ability of stem cells under different experiment conditions was tested. The more numbers of stem cells represents the stem cells have stronger migration ability under this experiment condition.
During the analysis of protein expression level, the EGCG induced expression level of CXCR4 and p-Akt increase would be eliminated by siRNA CXCR4. […] The stem cells were divided into six groups in this test, which were: Group 1: stem cell group, Group 2: high glucose destroyed stem cell group, Group 3: EGCG (10 μM in concentration) precondition high glucose destroyed stem cell group, Group 4: siRNA CXCR4 (3 nM) was added in Group 3, Group 5: CXCR4 siRNA (10 nM) was added into Group 4. The numbers of migrated stem cells were 288±25, 36±7, 159±17, 84±6, 41±8 and 40±2 respectively.

[4] = EGCG precondition at different concentrations vs high glucose destroyed stem cells

SMILES: O=C(O[C@@H]1Cc2c(O)cc(O)cc2O[C@@H]1c1cc(O)c(O)c(O)c1)c1cc(O)c(O)c(O)c1 [EGCG, epigallocatechin gallate]
- stem cell colonies ([1]; EGCG 2.5 μM precondition): 152±17
- stem cell colonies ([1]; EGCG 5 μM precondition): 178±22
- stem cell colonies ([1]; EGCG 10 μM precondition): 226±31
- apoptosis protein cytochrome-C expression level [2, 4]: decreased
- migration protein (CXCR4) expression level [2, 4]: recovered
- EGCG induced increase of CXCR4 and p-Akt expression level ([2]; FIG. 6, in the presence of siRNA CXCR4): eliminated
- migration ability (numbers of migrated stem cells) ([3]; FIG. 4, EGCG 2.5 μM precondition): 55±5
- migration ability (numbers of migrated stem cells) ([3]; FIG. 4, EGCG 5 μM precondition): 84±6
- migration ability (numbers of migrated stem cells) ([3]; FIG. 4, EGCG 10 μM precondition): 144±4
- numbers of migrated stem cells ([3]; FIG. 7, Group 3: EGCG 10 μM precondition): 159±17
- numbers of migrated stem cells ([3]; FIG. 7, Group 4: EGCG 10 μM precondition, siRNA CXCR4 3 nM added): 84±6
- numbers of migrated stem cells ([3]; FIG. 7, Group 5: EGCG 10 μM precondition, CXCR4 siRNA 10 nM added): 41±8
